What was measured:
[1] = test system: blend of Pseudomonas aeruginosa ATCC 15442, Staphylococcus aureus ATCC 6538, Escherichia coli ATCC 10536, Enterococcus hirae ATCC 10541 and Candida albicans …; test: Antimicrobial activity, zone of inhibition on TSA Petri dishes (Example 4); format: cell-based; conditions: aqueous solution pH 8.3, [Ag+]=0.1%, 100 μl, 37° C. for 24 h
Procedure: The antimicrobial activity of an aqueous solution at pH 8.3 of Na^+3[Ag^+(MPA^2−)2]^3− with an ionic concentration of [Ag+]=0.1% was tested against the following blend of microorganism strains (bought from Diagnostic International Distribution S.p.A): Pseudomonas aeruginosa ATCC 15442, Staphylococcus aureus ATCC 6538, Escherichia coli ATCC 10536, Enterococcus hirae ATCC 10541 e Candida albicans ATCC 10231. For each microbial strain, the concentration of the blend was in the range 1.5×10^12−5×10^12 unity forming colonies (UFC). A volume of 100 μl of the blend was seeded in Petri dishes containing a non-selective culture medium TSA (Tryptone Soya Agar) and a sample of 100 μl of said aqueous solution of Na^+3[Ag^+(MPA^2−)2]^3− was put in the centre of each Petri dish in contact with the microbial blend. The Petri dishes were then incubated at 37° C. for 24 h.

SARS-Cov-2 [2] = test: Antiviral effectiveness towards SARS-Cov-2: virus incubated on treated surface, replication in VeroE6 cells by qRT-PCR; format: cell-based; conditions: for ΔCt / Logarithmic difference: Ag+ 0.108% aqueous solution on surface; for ΔCt: vs untreated; for Logarithmic difference: vs untreated control
SARS-Cov-2 [3] = test: Cytopathic effect in VeroE6 cells infected with treated SARS-Cov-2, optical microscopy

SMILES: Cc1nc([S-])sc1CC(=O)[O-].Cc1nc([S-])sc1CC(=O)[O-].[Ag+].[Na+].[Na+].[Na+] [Aqueous solution containing Ag, Na^+3[Ag^+(MPA^2−)2]^3−]
- zone of inhibition (of the microbial growth) [1]: circa 3 cm
- ΔCt (SARS-Cov-2 [2]; virus 5 minutes, 24 hpi): 3.04
- Logarithmic difference (SARS-Cov-2 [2]; virus 5 minutes, 24 hpi): −0.91
- ΔCt (SARS-Cov-2 [2]; virus 5 minutes, 48 hpi): 1.91
- Logarithmic difference (SARS-Cov-2 [2]; virus 5 minutes, 48 hpi): −0.57
- ΔCt (SARS-Cov-2 [2]; virus 5 minutes, 72 hpi): 0.61
- Logarithmic difference (SARS-Cov-2 [2]; virus 5 minutes, 72 hpi): −0.18
- reduction of the viral charge (SARS-Cov-2 [2]; Ag+ 0.108%, at a time more distant from the infection): not significant
- decrease of the viral charge (SARS-Cov-2 [2]; Ag+ 0.108%, virus 5 minutes, 48 pci): 0.57 logarithms
- decrease of the viral charge (SARS-Cov-2 [2]; Ag+ 0.108%, virus 5 minutes, 24 h post-infection): 0.91 logarithms
- reduction of the viral charge (SARS-Cov-2 [2]; diluted aqueous solution, Ag+ 0.002%, virus 5 minutes, 24 hours post-infection): 0.82 logarithms
- cytopathic effect (SARS-Cov-2 [3]; Ag+ 0.002%, 72 hours post-infection): small decrease of the cytopathic effect
- cytopathic effect compared to cells infected with untreated virus (SARS-Cov-2 [3]; Ag+ 0.108%, 48 hours post-infection): lower cytopathic effect

Reference: patent US20240315241A1, “ANTIMICROBIAL POLYMERIC COMPOSITION” (priority 2021, published 2024)
